# Measurements reported in patent US20060111420A1, “Sorbicillactone-a derivatives for the treatment of tumour and viral diseases” (Johannes Gutenberg-Universitat Mainz, priority 2002, published 2006).
# Columns and labels:
# [1] = test system: L5178y mouse lymphoma cellular system (ATCC CRL 1722); assay: Antitumoural activity, L5178y cell proliferation (XTT); type: cell-based; settings: for Optical density (595 nm): 72 h, XTT, control 0.38; for cellular proliferation after 72 h: at >0.1 μg/ml
# [2] = molecular target: phospholipase A2 [from bee's poison] (Apis mellifera, UniProt P00630); assay: biochemical; settings: read-out: inhibition of phospholipase A2
# [3] = test system: NMRI-mice
# [4] = test system: human foreskin-fibroblasts; assay: Proliferation of human foreskin-fibroblasts; type: cell-based; settings: 30 μg/ml; cell count microscopically
# [5] = test system: mice-ear oedema; assay: TPA-induced mice-ear oedema; type: in vivo, mice (Swiss); settings: 20 μg topically 10 min after TPA (10 μg); n=5; P<=0.01
# Sequence of phospholipase A2 [from bee's poison] (P00630 34-167 limits assumed): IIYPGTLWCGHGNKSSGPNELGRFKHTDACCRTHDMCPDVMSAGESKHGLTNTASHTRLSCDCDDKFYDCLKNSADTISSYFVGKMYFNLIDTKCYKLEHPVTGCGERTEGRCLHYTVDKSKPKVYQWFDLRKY
SMILES,Optical density (595 nm) ([1]; 0.1 μg/ml),Optical density (595 nm) ([1]; 0.3 μg/ml),Optical density (595 nm) ([1]; 1.0 μg/ml),Optical density (595 nm) ([1]; 3.0 μg/ml),cellular proliferation after 72 h [1],inhibition at 2 µg/mL [2] [%],mortality ([3]; 20 mg/kg per day i.p. for five days),"sub-acute toxicity ([3]; male, NMRI, mouse, in vivo, ip, 5 days) [mg/kg]",effect on the proliferation [4],inhibition of the formation of the oedema [5] [%]
C/C=C/C=C/C(O)=C1/C(=O)C(C)=C(O)C2(C)OC(=O)C(C)(NC(=O)C3NN=CC3C(=O)OC)C12 (stereo not drawn) [SOA-D1],0.29,0.22,0.05,0.03,drastically reduced,–,–,–,–,–
"C/C=C/C=C/C(O)=C1/C(=O)C(C)=C(O)[C@@]2(C)OC(=O)[C@@](C)(NC(=O)/C=C/C(=O)O)[C@@H]12 [Sorbicillacton A, sorbicillacton A]",0.24,0.19,0.07,0.06,drastically reduced,~80,None of the test animals dies,> 20,no effect on the proliferation,39.2±5.3
